The record followed here is patent US20250064756A1, “NANOCRYSTALLINE TIO2 AND ZNO ORGANOSELENIUM SCAFFOLDS POSSESING DISELENIDE (SE-SE) FUNCTIONALITY FOR BIOMEDICAL TECHNOLOGY” (KING FAISAL UNIVERSITY, priority 2023, published 2025).

Values joined by “and” are separate entries in the source; they are usually repeats but may differ in a detail not shown here. Equal entries are not always repeated.

Assay in all cases: Antimicrobial activity, agar diffusion assay
Holding throughout (format): cell-based

Test [1] deals with B. subtilis (+ve). As to conditions: for A %: Cip. = 100. On the procedure: (§1) All reagents and solvents used in these studies were purchased from Sigma and used without purification. Melting points (MP) were measured on the Gallenkamp apparatus in degrees centigrade. The IR spectra (KBr, λmax·cm^−1) were recorded on a Mattson spectrophotometer (5000 FTIR) at King Faisal University. The ^1H & ^13C NMR spectra were measured using Varian Spectrophotometer (400 MHz), employing DMSO-d6 as the solvent and TMS internal standard at Mansoura University. The chemical shifts (δ, ppm) were recorded regarding the solvent residual peaks. GC-MS-QP-100 EX Shimadzu apparatus was used for mass measurements at Cairo University. All biological tests were carried out at the Faculty of Pharmacy, Mansoura University. All cell lines and microorganisms were purchased from the VACSERA Company (ATCC), Cairo, Egypt. DPPH and ABTS probes were obtained from Sigma.
(§2) In General, the diaryl diselenide B manifested promising antimicrobial activity against E. coli (A %=83%), S. aureus (A %=86%), and C. Albicans (A %=88%).

The subject of test [2] is E. coli (−ve). The note with it: for A %: Cip. = 100. As for the experimental part: as §1, §2
Test [3] relates to P. aeruginosa (−ve). As to conditions: for A %: Cip. = 100. As for the experimental part: as §1, §2
Test [4] concerns S. aureus (+ve). The note with it: for A %: Cip. = 100. On the procedure:
as §1, §2

Test [5] relates to A. flavus. On the procedure:
as §1, §2

The test system of test [6] is C. albicans. The note with it: for A %: Col. = 100. On the procedure: as §1, §2

Consider `O=C(O)c1cn(C2CC2)c2cc(N3CCNCC3)c(F)cc2c1=O` [Cip., reference compound], for which the “IZD (agar diffusion assay diameter)” value in test [1] amounted to 23 mm; in test [2] it was 26 mm; in test [3], 23 mm; in test [4] it was 24 mm. In addition, the A % in test [1], in test [2], in test [3] and in test [4] was 100% throughout.
With `Nc1ccc([Se][Se]c2ccc(N)cc2)cc1` [Compound A], the “IZD (agar diffusion assay diameter)” value in test [5] is 8 mm; in test [1] it was 15 mm; in test [6], 12 mm; in test [2], 14 mm; in test [3], 11 mm; in test [4], 17 mm. Besides, the A % in test [5] (Col. = 100) is 32%; in test [1], 65%; in test [6], 44%; in test [2], 54% and 62% and 65%; in test [3] it was 48%; in test [4], 71%.
As for `COC(=O)c1cc([Se][Se]c2ccc(N)c(C(=O)OC)c2)ccc1N` [Compound B, dimethyl 5,5-diselanediylbis(2-aminobenzoate)], the “IZD (agar diffusion assay diameter)” value in test [6] was found to be 21 mm; in test [2], 19 mm; in test [4], 18 mm. Besides, the A % in test [6] is listed as 88%; in test [2] it was 83%; in test [4], 86%.
